Here are results for 15 compounds from PMC6522510 (Nature Communications, 2019).

Some test systems named below: ML-2; MV4-11; CHRF288-11; CMS; M07e; MOLM-13; U937; CMK.
Set-up in all cases: species or system AML cell lines (8); Primary HTS, single concentration about 10 uM, Cell Titer Glo viability; log10 luminescence, per cent inhibition relative to cycloheximide control
Common to all, as to conditions: 72 h, relative to cycloheximide control, log10 luminescence, inhibitor
(Cellular ATP, detected with luciferase, serves as a proxy for viable cell number.)

Like-named read-outs stand apart in the source and are kept apart here. Square brackets hold non-standard residues; d marks the D form. Peptide text beside a SMILES is read from it. * marks the point of attachment. Sta = CC(C)C[C@H](N)[C@@H](O)CC(=O)O; Isovaleryl = CC(C)CC(=O)*

For the compound `Cn1c(=O)c(-c2ccccc2Cl)cc2cnc(NC3CCOCC3)nc21` [SJ000581163-1], in the assay on ML-2, the ML-2 %inh is listed as 1.667%. In the assay with MV4-11, the MV4-11 %inh came to 5.265%. Besides, in the assay with CHRF288-11, the CHRF288-11 %inh was 6.112%. Moreover, in the assay with CMS, the CMS %inh is reported as 7.391%. Moreover, the M07e %inh in the assay with M07e worked out at 8.813%. Also, the MOLM-13 %inh with MOLM-13 is listed as 7.929%. Also, in the assay with U937, the U937 %inh stood at 4.292%. Moreover, the CMK %inh with CMK is reported as 15.25%.

As for `CN(C)CCNC(=O)Nc1ccc(N(C)c2ccnc(Nc3ccc(CS(C)(=O)=O)cc3)n2)cc1` [SJ000573239-1, U17983/95/3], the ML-2 %inh in the assay with ML-2 worked out at 15.37%. Moreover, in the assay on MV4-11, the MV4-11 %inh was 73.54%. Moreover, the CHRF288-11 %inh with CHRF288-11 was 29.73%. In addition, the CMS %inh in the assay on CMS is recorded as -0.9741%. In the assay with M07e, the M07e %inh was found to be 0.06927%. The MOLM-13 %inh with MOLM-13 was determined as 92.53%. In addition, in the assay on U937, the U937 %inh is reported as -1.201%. Also, the CMK %inh in the assay on CMK was 26.79%.

As to `CC(C)Nc1ncc2cc(Oc3ccc(F)cc3F)c(=O)n(C)c2n1` [SJ000581145-1], the ML-2 %inh with ML-2 was 0.005285%. Besides, the MV4-11 %inh in the assay with MV4-11 is given as 3.959%. The CHRF288-11 %inh in the assay on CHRF288-11 is -0.5311%. For the same compound, in the assay on CMS, the CMS %inh was 3.456%. Further, in the assay with M07e, the M07e %inh came to 6.769%. Also, the MOLM-13 %inh in the assay on MOLM-13 came to 2.517%. Moreover, the U937 %inh with U937 is 2.438%. The CMK %inh with CMK is on record as 7.64%.

On to `CC(C)CC(=O)N[C@H](C(=O)N[C@H](C(=O)N[C@@H](CC(C)C)[C@@H](O)CC(=O)N[C@@H](C)C(=O)N[C@@H](CC(C)C)[C@@H](O)CC(=O)O)C(C)C)C(C)C` [SJ000287258-4, PEPSTATIN A] (Isovaleryl-VV[Sta]A[Sta]-OH), for which, in the assay with ML-2 (ML-2 %inh, 10 µM), the ML-2 %inh is given as -2.254%. Further, in the assay with MV4-11 (MV4-11 %inh, 10 µM), the MV4-11 %inh is recorded as 2.97%. Also, the CHRF288-11 %inh in the assay with CHRF288-11 (CHRF288-11 %inh, 10 µM) was -1.709%. Moreover, in the assay with CMS (CMS %inh, 10 µM), the CMS %inh is recorded as 2.288%. Besides, the M07e %inh in the assay with M07e (M07e %inh, 10 µM) is -0.4461%. Moreover, the MOLM-13 %inh in the assay on MOLM-13 (MOLM-13 %inh, 10 µM) is reported as 0.9923%. Further, the U937 %inh in the assay on U937 (U937 %inh, 10 µM) is -1.362%. In addition, in the assay with CMK (CMK %inh, 10 µM), the CMK %inh is reported as -1.598%.

On to `CCn1c(-c2nonc2N)nc2ccccc21` [SJ000573156-1, U17602/18/1 | JT100597-005A1], for which the ML-2 %inh in the assay with ML-2 amounted to 2.051%. Besides, the MV4-11 %inh in the assay on MV4-11 is recorded as -3.157%. Also, the CHRF288-11 %inh in the assay on CHRF288-11 is -4.898%. Also, the CMS %inh in the assay with CMS is -3.86%. In the assay on M07e, the M07e %inh was found to be 0.4432%. Also, in the assay on MOLM-13, the MOLM-13 %inh is given as -2.502%. The U937 %inh in the assay on U937 is -1.491%. The CMK %inh with CMK is on record as -4.724%.

With `Cn1cc(C2=C(c3cccc(Cl)c3)C(=O)NC2=O)c2ccccc21` [SJ000580981-1], the ML-2 %inh with ML-2 is -1.322%. Further, the MV4-11 %inh with MV4-11 is on record as -5.929%. The CHRF288-11 %inh in the assay on CHRF288-11 was 3.619%. For the same compound, the CMS %inh in the assay with CMS is recorded as -3.182%. The M07e %inh in the assay with M07e came to 1.057%. Also, in the assay with MOLM-13, the MOLM-13 %inh is recorded as -1.961%. Further, in the assay with U937, the U937 %inh is 1.717%. Moreover, the CMK %inh in the assay with CMK is reported as -0.373%.

In the case of `COc1cc2ncn(-c3cc(OCCc4ccccc4)c(C(N)=O)s3)c2cc1OC` [SJ000573025-1, U19479/153/8], the ML-2 %inh with ML-2 was 0.6694%. Moreover, the MV4-11 %inh with MV4-11 is 2.077%. Besides, in the assay on CHRF288-11, the CHRF288-11 %inh came out at 0.4642%. Besides, in the assay on CMS, the CMS %inh was -1.969%. Moreover, the M07e %inh in the assay on M07e amounted to 0.3839%. For the same compound, the MOLM-13 %inh in the assay on MOLM-13 came to 2.298%. The U937 %inh in the assay on U937 is given as 0.712%. Further, in the assay on CMK, the CMK %inh is listed as 4.39%.

In the case of `Cc1[nH]c(/C=C2\C(=O)Nc3ccccc32)c(C)c1CCC(=O)O` [SJ000556685-2, ORANTINIB | SU-6668 | TSU-68 | TSU-68 (SU6668, ORANTINIB)], in the assay with ML-2, the ML-2 %inh was determined as 2.987%. The MV4-11 %inh in the assay with MV4-11 amounted to 14.82%. For the same compound, the CHRF288-11 %inh with CHRF288-11 stood at 14.71%. Moreover, the CMS %inh in the assay on CMS was 12.46%. For the same compound, the M07e %inh with M07e was determined as 0.796%. The MOLM-13 %inh in the assay on MOLM-13 came out at 33.6%. Moreover, the U937 %inh in the assay on U937 is recorded as 4.629%. Besides, the CMK %inh in the assay with CMK amounted to 1.601%.

For `COc1ccc(-c2ccc3c(N4CCOC[C@@H]4C)nc(N4CCOC[C@@H]4C)nc3n2)cc1CO` [SJ000571306-4, 1009298-09-2 | AZD8055 | | AZD8055], the ML-2 %inh in the assay on ML-2 was 20%. Further, the MV4-11 %inh in the assay with MV4-11 is given as 44.46%. For the same compound, the CHRF288-11 %inh with CHRF288-11 came out at 63.41%. In addition, in the assay with CMS, the CMS %inh came out at 58.27%. For the same compound, in the assay on M07e, the M07e %inh was determined as 41.99%. In the assay with MOLM-13, the MOLM-13 %inh is reported as 34.83%. Besides, the U937 %inh in the assay on U937 is reported as 53.04%. Besides, the CMK %inh in the assay with CMK was determined as 103.1%.

With `Cn1cc(C2=C(c3ccc(N)cc3)C(=O)NC2=O)c2ccccc21` [SJ000581160-1], in the assay with ML-2, the ML-2 %inh was found to be 2.229%. The MV4-11 %inh in the assay on MV4-11 turned out to be 3.731%. In addition, the CHRF288-11 %inh with CHRF288-11 was determined as 1.792%. Besides, the CMS %inh with CMS was 6.332%. In addition, in the assay with M07e, the M07e %inh was determined as 7.926%. In addition, in the assay on MOLM-13, the MOLM-13 %inh is on record as 6.461%. The U937 %inh in the assay with U937 was determined as 1.651%. For the same compound, in the assay on CMK, the CMK %inh was 8.525%.

As for `CN1CCN(CCCNc2nc3ccc(Oc4ccc(NC(=O)Nc5cc(C(F)(F)F)ccc5F)cc4)cc3[nH]2)CC1` [SJ000573304-1, T278/35/2], the ML-2 %inh in the assay with ML-2 is recorded as 1.341%. In the assay on MV4-11, the MV4-11 %inh came out at 57.09%. Also, the CHRF288-11 %inh in the assay with CHRF288-11 is on record as -0.361%. Besides, the CMS %inh in the assay with CMS stood at 2.836%. In addition, the M07e %inh in the assay on M07e amounted to 5.692%. Moreover, the MOLM-13 %inh with MOLM-13 is reported as 79.64%. Besides, the U937 %inh in the assay with U937 was 2.101%. Moreover, the CMK %inh in the assay on CMK was 2.938%.

For the compound `Fc1ccc(-c2cc(-c3c[nH]nc3-c3ccccn3)ccn2)cc1` [SJ000573276-1, FCJB/213/107/1], the ML-2 %inh in the assay on ML-2 came to 4.336%. Moreover, the MV4-11 %inh in the assay with MV4-11 is recorded as 1.718%. Also, in the assay on CHRF288-11, the CHRF288-11 %inh is reported as -1.896%. In addition, the CMS %inh in the assay on CMS is recorded as -1.917%. In addition, in the assay on M07e, the M07e %inh is listed as -1.13%. In the assay on MOLM-13, the MOLM-13 %inh was 10.74%. The U937 %inh with U937 is reported as 16.91%. For the same compound, in the assay with CMK, the CMK %inh is 15.4%.

For the compound `COc1ccc(-c2oc3ncnc(N)c3c2-c2ccc(NC(=O)Nc3cc(C(F)(F)F)ccc3F)cc2)cc1` [SJ000573296-1, T299/60/1], the ML-2 %inh with ML-2 came out at 0.8185%. For the same compound, in the assay with MV4-11, the MV4-11 %inh stood at 5.923%. The CHRF288-11 %inh with CHRF288-11 was -2.7%. For the same compound, in the assay on CMS, the CMS %inh stood at 0.08626%. The M07e %inh with M07e is -1.472%. Besides, the MOLM-13 %inh in the assay on MOLM-13 was found to be 23.97%. The U937 %inh in the assay with U937 is -2.62%. For the same compound, the CMK %inh with CMK is recorded as 1.218%.

Turning to `O=C1NC(=N[C@@H](CO)Cc2ccccc2)S/C1=C\c1ccc2ncccc2c1` [SJ000581019-1], the ML-2 %inh with ML-2 was 8.345%. Besides, in the assay on MV4-11, the MV4-11 %inh turned out to be 35.98%. The CHRF288-11 %inh in the assay with CHRF288-11 is given as 42.52%. Also, the CMS %inh with CMS turned out to be 8.828%. The M07e %inh in the assay with M07e is on record as 15.21%. The MOLM-13 %inh with MOLM-13 was 62.37%. Further, the U937 %inh in the assay with U937 came to 18.33%. Also, in the assay with CMK, the CMK %inh came out at 99.34%.

Take `Cn1cc(C2=C(c3cccnc3)C(=O)NC2=O)c2ccccc21` [SJ000581097-1]: the ML-2 %inh with ML-2 is on record as 3.521%. Further, the MV4-11 %inh in the assay on MV4-11 came to 3.908%. The CHRF288-11 %inh with CHRF288-11 stood at 42.59%. Further, in the assay on CMS, the CMS %inh is given as 3.929%. Further, the M07e %inh with M07e is 1.519%. Further, the MOLM-13 %inh with MOLM-13 was 6.704%. For the same compound, the U937 %inh in the assay with U937 was -1.738%. Further, the CMK %inh in the assay with CMK worked out at 8.732%.
